Source: the supplement of paper PMC6045584
± gives the standard deviation of the averaged measurements.

Columns and labels:
FORETINIB = compound: COc1cc2c(Oc3ccc(NC(=O)C4(C(=O)Nc5ccc(F)cc5)CC4)cc3F)ccnc2cc1OCCCN1CCOCC1 [FORETINIB]; experiment: surviving fraction relative to DMSO-only wells; higher = less growth inhibition; settings: exposure time: 5 days
Outline: (§1)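 Inhibitors at 0.5, 1, 5, 10, 50, 100, 500 and 1000 nM were applied continuously for five days to tumour cell lines seeded in log phase at 250–500 cells per well in 384-well plates 24 hours earlier. Viability was measured by CellTiter-Glo luminescence and expressed as surviving fraction relative to the median of DMSO-only wells. Luminescence was taken after 10 minutes at room temperature.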

[1] = compound: CNCc1ccc(-c2[nH]c3cc(F)cc4c3c2CCNC4=O)cc1; experiment: as above; settings: exposure time: 5 days
Outline: as §1

Test System NY BONE has a surviving fraction (FORETINIB; 0.5 nM) of 1.05 ± 0.035, a surviving fraction (FORETINIB; 1 nM) of 1.03 ± 0.034 and a surviving fraction (FORETINIB; 5 nM) of 1.07 ± 0.033. The surviving fraction (FORETINIB; 10 nM) was 1.016 ± 0.0061, the surviving fraction (FORETINIB; 50 nM) was 0.91 ± 0.019 and the surviving fraction (FORETINIB; 100 nM) was 0.93 ± 0.045. The surviving fraction (FORETINIB; 500 nM) was 0.558 ± 0.047, the surviving fraction (FORETINIB; 1000 nM) was 0.587 ± 0.031 and the surviving fraction ([1]; 0.5 nM) was 0.989 ± 0.016. It also gave a surviving fraction ([1]; 1 nM) of 0.99 ± 0.044, a surviving fraction ([1]; 5 nM) of 1.05 ± 0.042 and a surviving fraction ([1]; 10 nM) of 1.01 ± 0.055. It also gave a surviving fraction ([1]; 50 nM) of 0.981 ± 0.033, a surviving fraction ([1]; 100 nM) of 1.026 ± 0.0093 and a surviving fraction ([1]; 500 nM) of 0.895 ± 0.03. The surviving fraction ([1]; 1000 nM) was 0.827 ± 0.052.
OS25HAL BONE was tested, and the surviving fraction (FORETINIB; 0.5 nM) was 1.01 ± 0.045, the surviving fraction (FORETINIB; 1 nM) was 1.04 ± 0.032 and the surviving fraction (FORETINIB; 5 nM) was 1.08 ± 0.0095. It also gave a surviving fraction (FORETINIB; 10 nM) of 1 ± 0.018, a surviving fraction (FORETINIB; 50 nM) of 0.924 ± 0.023 and a surviving fraction (FORETINIB; 100 nM) of 0.951 ± 0.031. For the same test system, the surviving fraction (FORETINIB; 500 nM) was 0.375 ± 0.038, the surviving fraction (FORETINIB; 1000 nM) was 0.193 ± 0.0084 and the surviving fraction ([1]; 0.5 nM) was 0.98 ± 0.029. It also gave a surviving fraction ([1]; 1 nM) of 1.1 ± 0.024, a surviving fraction ([1]; 5 nM) of 1.017 ± 0.01 and a surviving fraction ([1]; 10 nM) of 1.01 ± 0.032. It also gave a surviving fraction ([1]; 50 nM) of 0.954 ± 0.034, a surviving fraction ([1]; 100 nM) of 1.01 ± 0.052 and a surviving fraction ([1]; 500 nM) of 1.003 ± 0.0071. It also gave a surviving fraction ([1]; 1000 nM) of 0.98 ± 0.039.
In the case of OSHN BONE, the surviving fraction (FORETINIB; 0.5 nM) is reported as 1.08 ± 0.05, the surviving fraction (FORETINIB; 1 nM) is reported as 1.07 ± 0.031 and the surviving fraction (FORETINIB; 5 nM) is reported as 1.08 ± 0.018. It also gave a surviving fraction (FORETINIB; 10 nM) of 1.05 ± 0.041, a surviving fraction (FORETINIB; 50 nM) of 1.03 ± 0.035 and a surviving fraction (FORETINIB; 100 nM) of 1.01 ± 0.039. It also gave a surviving fraction (FORETINIB; 500 nM) of 0.735 ± 0.057, a surviving fraction (FORETINIB; 1000 nM) of 0.0927 ± 0.013 and a surviving fraction ([1]; 0.5 nM) of 1.03 ± 0.028. The surviving fraction ([1]; 1 nM) was 1.06 ± 0.028, the surviving fraction ([1]; 5 nM) was 1.01 ± 0.031 and the surviving fraction ([1]; 10 nM) was 1.02 ± 0.048. It also gave a surviving fraction ([1]; 50 nM) of 0.945 ± 0.031, a surviving fraction ([1]; 100 nM) of 0.933 ± 0.029 and a surviving fraction ([1]; 500 nM) of 0.959 ± 0.02. The surviving fraction ([1]; 1000 nM) was 0.857 ± 0.036.
Test System PCI30 HEADNECK has a surviving fraction (FORETINIB; 0.5 nM) of 1.07 ± 0.09, a surviving fraction (FORETINIB; 1 nM) of 1.1 ± 0.043 and a surviving fraction (FORETINIB; 5 nM) of 1.1 ± 0.019. It also gave a surviving fraction (FORETINIB; 10 nM) of 1.11 ± 0.045, a surviving fraction (FORETINIB; 50 nM) of 1.04 ± 0.028 and a surviving fraction (FORETINIB; 100 nM) of 1.04 ± 0.072. It also gave a surviving fraction (FORETINIB; 500 nM) of 0.806 ± 0.056, a surviving fraction (FORETINIB; 1000 nM) of 0.484 ± 0.0076 and a surviving fraction ([1]; 0.5 nM) of 0.981 ± 0.059. For the same test system, the surviving fraction ([1]; 1 nM) was 1.04 ± 0.059, the surviving fraction ([1]; 5 nM) was 0.912 ± 0.019 and the surviving fraction ([1]; 10 nM) was 0.937 ± 0.037. For the same test system, the surviving fraction ([1]; 50 nM) was 0.916 ± 0.056, the surviving fraction ([1]; 100 nM) was 0.944 ± 0.062 and the surviving fraction ([1]; 500 nM) was 0.964 ± 0.044. For the same test system, the surviving fraction ([1]; 1000 nM) was 0.956 ± 0.038.
Work on RDES SOFT TISSUE yielded a surviving fraction (FORETINIB; 0.5 nM) of 1.31 ± 0.058, a surviving fraction (FORETINIB; 1 nM) of 1.25 ± 0.13 and a surviving fraction (FORETINIB; 5 nM) of 1.17 ± 0.088. It also gave a surviving fraction (FORETINIB; 10 nM) of 1.07 ± 0.065, a surviving fraction (FORETINIB; 50 nM) of 0.989 ± 0.12 and a surviving fraction (FORETINIB; 100 nM) of 0.892 ± 0.092. The surviving fraction (FORETINIB; 500 nM) was 0.226 ± 0.013, the surviving fraction (FORETINIB; 1000 nM) was 0.106 ± 0.0059 and the surviving fraction ([1]; 0.5 nM) was 1.15 ± 0.059. The surviving fraction ([1]; 1 nM) was 1.09 ± 0.17, the surviving fraction ([1]; 5 nM) was 1.02 ± 0.049 and the surviving fraction ([1]; 10 nM) was 1.06 ± 0.042. For the same test system, the surviving fraction ([1]; 50 nM) was 0.918 ± 0.19, the surviving fraction ([1]; 100 nM) was 1.06 ± 0.089 and the surviving fraction ([1]; 500 nM) was 1.14 ± 0.036. For the same test system, the surviving fraction ([1]; 1000 nM) was 1.38 ± 0.15.
S68 BREAST showed a surviving fraction (FORETINIB; 0.5 nM) of 0.862 ± 0.072, a surviving fraction (FORETINIB; 1 nM) of 0.875 ± 0.33 and a surviving fraction (FORETINIB; 5 nM) of 1.35 ± 0.14. For the same test system, the surviving fraction (FORETINIB; 10 nM) was 0.916 ± 0.15, the surviving fraction (FORETINIB; 50 nM) was 1.05 ± 0.082 and the surviving fraction (FORETINIB; 100 nM) was 0.78 ± 0.059. The surviving fraction (FORETINIB; 500 nM) was 0.313 ± 0.025, the surviving fraction (FORETINIB; 1000 nM) was 0.331 ± 0.077 and the surviving fraction ([1]; 0.5 nM) was 1.19 ± 0.22. The surviving fraction ([1]; 1 nM) was 0.82 ± 0.23, the surviving fraction ([1]; 5 nM) was 0.959 ± 0.1 and the surviving fraction ([1]; 10 nM) was 0.996 ± 0.26. For the same test system, the surviving fraction ([1]; 50 nM) was 0.676 ± 0.18, the surviving fraction ([1]; 100 nM) was 0.696 ± 0.17 and the surviving fraction ([1]; 500 nM) was 0.691 ± 0.15. For the same test system, the surviving fraction ([1]; 1000 nM) was 0.425 ± 0.11.
For SAOS2 BONE, the surviving fraction (FORETINIB; 0.5 nM) was 1.17 ± 0.045, the surviving fraction (FORETINIB; 1 nM) was 1.12 ± 0.072 and the surviving fraction (FORETINIB; 5 nM) was 1.12 ± 0.048. The surviving fraction (FORETINIB; 10 nM) was 1.17 ± 0.069, the surviving fraction (FORETINIB; 50 nM) was 1.15 ± 0.15 and the surviving fraction (FORETINIB; 100 nM) was 1.08 ± 0.15. The surviving fraction (FORETINIB; 500 nM) was 0.611 ± 0.082, the surviving fraction (FORETINIB; 1000 nM) was 0.162 ± 0.03 and the surviving fraction ([1]; 0.5 nM) was 1.12 ± 0.044. The surviving fraction ([1]; 1 nM) was 1.14 ± 0.08, the surviving fraction ([1]; 5 nM) was 1.14 ± 0.02 and the surviving fraction ([1]; 10 nM) was 1.12 ± 0.16. For the same test system, the surviving fraction ([1]; 50 nM) was 0.844 ± 0.061, the surviving fraction ([1]; 100 nM) was 0.833 ± 0.069 and the surviving fraction ([1]; 500 nM) was 0.747 ± 0.1. It also gave a surviving fraction ([1]; 1000 nM) of 0.662 ± 0.021.
In the case of SCC003 HEADNECK, the surviving fraction (FORETINIB; 0.5 nM) is reported as 1.09 ± 0.068, the surviving fraction (FORETINIB; 1 nM) is reported as 1.14 ± 0.033 and the surviving fraction (FORETINIB; 5 nM) is reported as 1.12 ± 0.074. The surviving fraction (FORETINIB; 10 nM) was 1.11 ± 0.038, the surviving fraction (FORETINIB; 50 nM) was 1.04 ± 0.066 and the surviving fraction (FORETINIB; 100 nM) was 1.06 ± 0.088. For the same test system, the surviving fraction (FORETINIB; 500 nM) was 0.912 ± 0.046, the surviving fraction (FORETINIB; 1000 nM) was 0.485 ± 0.0087 and the surviving fraction ([1]; 0.5 nM) was 1.03 ± 0.045. For the same test system, the surviving fraction ([1]; 1 nM) was 1.05 ± 0.016, the surviving fraction ([1]; 5 nM) was 1.1 ± 0.059 and the surviving fraction ([1]; 10 nM) was 1.05 ± 0.078. For the same test system, the surviving fraction ([1]; 50 nM) was 1.07 ± 0.047, the surviving fraction ([1]; 100 nM) was 1.05 ± 0.091 and the surviving fraction ([1]; 500 nM) was 0.99 ± 0.11. For the same test system, the surviving fraction ([1]; 1000 nM) was 0.918 ± 0.057.
With SCC36 HEADNECK the surviving fraction (FORETINIB; 0.5 nM) was 1.06 ± 0.11, the surviving fraction (FORETINIB; 1 nM) was 1.11 ± 0.13 and the surviving fraction (FORETINIB; 5 nM) was 1.17 ± 0.02. It also gave a surviving fraction (FORETINIB; 10 nM) of 1.13 ± 0.047, a surviving fraction (FORETINIB; 50 nM) of 1.115 ± 0.0078 and a surviving fraction (FORETINIB; 100 nM) of 1.08 ± 0.061. For the same test system, the surviving fraction (FORETINIB; 500 nM) was 0.742 ± 0.084, the surviving fraction (FORETINIB; 1000 nM) was 0.41 ± 0.035 and the surviving fraction ([1]; 0.5 nM) was 1.02 ± 0.15. For the same test system, the surviving fraction ([1]; 1 nM) was 0.999 ± 0.1, the surviving fraction ([1]; 5 nM) was 1.11 ± 0.024 and the surviving fraction ([1]; 10 nM) was 1.07 ± 0.1. It also gave a surviving fraction ([1]; 50 nM) of 0.763 ± 0.057, a surviving fraction ([1]; 100 nM) of 0.728 ± 0.018 and a surviving fraction ([1]; 500 nM) of 0.629 ± 0.019. For the same test system, the surviving fraction ([1]; 1000 nM) was 0.592 ± 0.069.
